Patent US10597388B2, “Pyridazinone herbicides” (FMC CORPORATION, priority 2014, dated 2020)

Columns and labels:
Format in all cases: in vivo
kochia (Kochia scoparia) = test: Test C greenhouse herbicide test, postemergence
How it was run: (§1)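 Postemergence foliar treatment, 1- to 4-leaf stage (2–18 cm), peat/vermiculite medium; greenhouse 13–15 d; visual rating vs controls, 0 = no effect, 100 = complete control; dash = no result.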

[1] = tested on: oat, wild (wild oat, Avena fatua); test: Test C greenhouse herbicide test, postemergence
How it was run: as §1

[2] = tested on: velvetleaf (Abutilon theophrasti); test: Test C greenhouse herbicide test, pre- and postemergence
How it was run: (§2)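 Percent-control ratings (0 none, 100 complete) came from visual comparison with controls held alongside in the greenhouse for 13–15 d. Treatments covered soil application at sowing and foliar application to young plants 2–18 cm tall.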

corn (Zea mays) = test: as above
How it was run: as §2

[3] = tested on: wheat (winter wheat, Triticum aestivum); test: as above
How it was run: as §2

[4] = tested on: galium (catchweed bedstraw, Galium aparine); test: as above
How it was run: as §2

soybean (Glycine max) = test: as above
How it was run: as §2

[5] = tested on: blackgrass (Alopecurus myosuroides); test: as above
How it was run: as §2

[6] = tested on: crabgrass, large (large crabgrass, Digitaria sanguinalis); test: as above
How it was run: as §2

[7] = tested on: waterhemp (common waterhemp, Amaranthus rudis); test: as above
How it was run: as §2

[8] = tested on: morningglory (Ipomoea coccinea); test: as above
How it was run: as §2

[9] = tested on: pigweed (Amaranthus retroflexus); test: as above
How it was run: as §2

[10] = tested on: oilseed rape (Brassica napus); test: as above
How it was run: as §2

[11] = tested on: johnsongrass (Sorghum halepense); test: as above
How it was run: as §2

[12] = tested on: ragweed (common ragweed, Ambrosia elatior); test: as above
How it was run: as §2

[13] = tested on: foxtail, giant (giant foxtail, Setaria faberii); test: as above
How it was run: as §2

[14] = tested on: barnyardgrass (Echinochloa crus-galli); test: as above
How it was run: as §2

[15] = Postemergence, 31 g ai/ha, scale 0 to 100 (0 no effect, 100 complete control)
[16] = Postemergence, 62 g ai/ha, 0 to 100 scale (0 no effect, 100 complete control)
[17] = Postemergence, 250 g ai/ha, scale 0 to 100, 0 is no effect, 100 is complete control
[18] = postemergence, 125 g ai/ha, scale 0 to 100, 0 no effect, 100 complete control
[19] = Preemergence, 31 g ai/ha, scale 0 to 100, 0 is no effect, 100 is complete control
[20] = Preemergence, 62 g ai/ha, scale 0 to 100, 0 is no effect, 100 is complete control
[21] = Preemergence, 125 g ai/ha, scale 0 to 100, 0 is no effect, 100 is complete control
[22] = Preemergence, 250 g ai/ha, scale 0 to 100 (0 no effect, 100 complete control)

CSCC(=O)Oc1c(C)nn(C)c(=O)c1-c1cccc2ccccc12 [Compound 171]
Plant response rating, Kochia (kochia (Kochia scoparia); [15]): 95
Kochia plant response rating (kochia (Kochia scoparia); [16]): 95
Plant response rating, Kochia (kochia (Kochia scoparia); [17]): 98
Kochia plant response rating (kochia (Kochia scoparia); [18]): 98
Plant response rating, Oat, Wild [1, 15]: 65
Oat, Wild plant response rating [1, 16]: 90
Plant response rating, Oat, Wild [1, 17]: 95
Oat, Wild plant response rating [1, 18]: 90
Plant response rating, Velvetleaf [2, 15]: 35
Velvetleaf plant response rating [2, 16]: 70
Plant response rating, Velvetleaf [2, 17]: 100
Plant response rating, Velvetleaf [2, 19]: 70
Plant response rating, Velvetleaf [2, 20]: 90
Plant response rating, Velvetleaf [2, 21]: 95
Velvetleaf plant response rating [2, 18]: 100
Plant response rating, Corn (corn (Zea mays); [15]): 0
Corn plant response rating (corn (Zea mays); [16]): 0
Plant response rating, Corn (corn (Zea mays); [17]): 20
Plant response rating, Corn (corn (Zea mays); [19]): 0
Plant response rating, Corn (corn (Zea mays); [20]): 0
Plant response rating, Corn (corn (Zea mays); [21]): 0
Corn plant response rating (corn (Zea mays); [22]): 40
Corn plant response rating (corn (Zea mays); [18]): 10
Plant response rating, Wheat [3, 15]: 0
Wheat plant response rating [3, 16]: 15
Plant response rating, Wheat [3, 17]: 20
Plant response rating, Wheat [3, 19]: 0
Plant response rating, Wheat [3, 20]: 5
Plant response rating, Wheat [3, 21]: 45
Wheat plant response rating [3, 18]: 30
Plant response rating, Galium [4, 15]: 95
Galium plant response rating [4, 16]: 95
Plant response rating, Galium [4, 17]: 95
Plant response rating, Galium [4, 19]: 90
Plant response rating, Galium [4, 20]: 90
Plant response rating, Galium [4, 21]: 98
Galium plant response rating [4, 22]: 100
Galium plant response rating [4, 18]: 95
Plant response rating, Soybean (soybean (Glycine max); [15]): 10
Soybean plant response rating (soybean (Glycine max); [16]): 30
Plant response rating, Soybean (soybean (Glycine max); [17]): 50
Plant response rating, Soybean (soybean (Glycine max); [20]): 0
Plant response rating, Soybean (soybean (Glycine max); [21]): 55
Soybean plant response rating (soybean (Glycine max); [18]): 60
Plant response rating, Blackgrass [5, 15]: 5
Blackgrass plant response rating [5, 16]: 30
Plant response rating, Blackgrass [5, 17]: 55
Plant response rating, Blackgrass [5, 19]: 30
Plant response rating, Blackgrass [5, 20]: 40
Plant response rating, Blackgrass [5, 21]: 45
Blackgrass plant response rating [5, 22]: 90
Blackgrass plant response rating [5, 18]: 40
Plant response rating, Crabgrass, Large [6, 15]: 5
Crabgrass, Large plant response rating [6, 16]: 20
Plant response rating, Crabgrass, Large [6, 17]: 55
Plant response rating, Crabgrass, Large [6, 19]: 0
Plant response rating, Crabgrass, Large [6, 20]: 45
Plant response rating, Crabgrass, Large [6, 21]: 60
Crabgrass, Large plant response rating [6, 22]: 80
Crabgrass, Large plant response rating [6, 18]: 40
Plant response rating, Waterhemp [7, 15]: 75
Waterhemp plant response rating [7, 16]: 95
Plant response rating, Waterhemp [7, 17]: 100
Plant response rating, Waterhemp [7, 19]: 85
Plant response rating, Waterhemp [7, 20]: 95
Plant response rating, Waterhemp [7, 21]: 100
Waterhemp plant response rating [7, 18]: 98
Plant response rating, Morningglory [8, 15]: 90
Morningglory plant response rating [8, 16]: 100
Plant response rating, Morningglory [8, 17]: 100
Plant response rating, Morningglory [8, 19]: 85
Plant response rating, Morningglory [8, 20]: 90
Plant response rating, Morningglory [8, 21]: 95
Morningglory plant response rating [8, 22]: 98
Morningglory plant response rating [8, 18]: 100
Plant response rating, Pigweed [9, 15]: 60
Pigweed plant response rating [9, 16]: 80
Plant response rating, Pigweed [9, 17]: 100
Plant response rating, Pigweed [9, 19]: 70
Plant response rating, Pigweed [9, 20]: 60
Plant response rating, Pigweed [9, 21]: 100
Pigweed plant response rating [9, 22]: 100
Pigweed plant response rating [9, 18]: 90
Plant response rating, Oilseed Rape [10, 15]: 0
Oilseed Rape plant response rating [10, 16]: 0
Plant response rating, Oilseed Rape [10, 17]: 30
Plant response rating, Oilseed Rape [10, 19]: 0
Plant response rating, Oilseed Rape [10, 20]: 5
Plant response rating, Oilseed Rape [10, 21]: 50
Oilseed Rape plant response rating [10, 22]: 90
Oilseed Rape plant response rating [10, 18]: 0
Plant response rating, Johnsongrass [11, 15]: 5
Johnsongrass plant response rating [11, 16]: 5
Plant response rating, Johnsongrass [11, 17]: 20
Plant response rating, Johnsongrass [11, 19]: 0
Plant response rating, Johnsongrass [11, 20]: 5
Plant response rating, Johnsongrass [11, 21]: 10
Johnsongrass plant response rating [11, 22]: 35
Johnsongrass plant response rating [11, 18]: 15
Plant response rating, Ragweed [12, 15]: 75
Ragweed plant response rating [12, 16]: 100
Plant response rating, Ragweed [12, 17]: 100
Plant response rating, Ragweed [12, 19]: 65
Plant response rating, Ragweed [12, 20]: 80
Plant response rating, Ragweed [12, 21]: 95
Ragweed plant response rating [12, 18]: 100
Plant response rating, Foxtail, Giant [13, 15]: 10
Foxtail, Giant plant response rating [13, 16]: 25
Plant response rating, Foxtail, Giant [13, 17]: 75
Foxtail, Giant plant response rating [13, 18]: 50
Plant response rating, Barnyardgrass [14, 15]: 15
Barnyardgrass plant response rating [14, 16]: 35
Plant response rating, Barnyardgrass [14, 17]: 60
Plant response rating, Barnyardgrass [14, 19]: 5
Plant response rating, Barnyardgrass [14, 20]: 35
Plant response rating, Barnyardgrass [14, 21]: 75
Barnyardgrass plant response rating [14, 22]: 95
Barnyardgrass plant response rating [14, 18]: 40
